Laboratory results published in article PMC5201303, “Comparison of Enzymatic Traits between Native and Recombinant Glycine Sarcosine N-Methyltransferase from Methanohalophilus portucalensis FDF1^T” (PLoS ONE, 2016).

Assays:
[1] = target: T1, native GSMT (glycine sarcosine N-methyltransferase) (Methanohalophilus portucalensis, UniProt F6KV61); assay: radiometric [methyl-3H]-SAM methyl transfer, charcoal separation; assay type: biochemical; settings: read-out: I50
T1 construct: monomer and dimer fractions pooled
T1 sequence (F6KV61 1-263): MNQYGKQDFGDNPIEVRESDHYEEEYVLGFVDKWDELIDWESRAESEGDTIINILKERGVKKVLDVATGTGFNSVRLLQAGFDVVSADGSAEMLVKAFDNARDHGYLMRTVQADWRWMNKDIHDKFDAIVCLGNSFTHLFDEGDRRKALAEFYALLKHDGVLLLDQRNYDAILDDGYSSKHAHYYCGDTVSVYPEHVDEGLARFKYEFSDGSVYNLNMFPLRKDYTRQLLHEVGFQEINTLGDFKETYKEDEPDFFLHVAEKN

[2] = target: T1, native GSMT (glycine sarcosine N-methyltransferase); assay: as above; assay type: biochemical

Row | SMILES | IC50 [1] | remaining activity at 1 M [2]
1 | Nc1ncnc2c1ncn2[C@@H]1O[C@H](CSCC[C@H](N)C(=O)O)[C@@H](O)[C@H]1O [SAH, S-adenosylhomocysteine] | 50 µM | –
2 | C[N+](C)(C)CC(=O)[O-] [betaine] | – | 43%
